Measurements as given in the kinase profiling compilation of Christmann-Franck et al. (2016).

Legend:
Assay in all cases: KINOMEscan competition binding
Settings in all cases: compound 1.0 µM
[1] = system: ABL1 (human), P00519 [F317I]
STK4 (human) = STK4 (human) (UniProt Q13043)
NTRK3 (human) = NTRK3 (human) (UniProt Q16288)
PAK2 (human) = PAK2 (human) (UniProt Q13177)
SRPK2 (human) = SRPK2 (human) (UniProt P78362)
[2] = system: ABL1 (human), P00519 [H396P]
TNNI3K (human) = TNNI3K (human) (UniProt Q59H18)
DYRK1B (human) = DYRK1B (human) (UniProt Q9Y463)
MARK3 (human) = MARK3 (human) (UniProt P27448)
MLTK (human) = MLTK (human) (UniProt Q9NYL2)
CAMK2D (human) = CAMK2D (human) (UniProt Q13557)
PKN1 (human) = PKN1 (human) (UniProt Q16512)
Chain of PKN1 (human) (Q16512 whole entry, looked up): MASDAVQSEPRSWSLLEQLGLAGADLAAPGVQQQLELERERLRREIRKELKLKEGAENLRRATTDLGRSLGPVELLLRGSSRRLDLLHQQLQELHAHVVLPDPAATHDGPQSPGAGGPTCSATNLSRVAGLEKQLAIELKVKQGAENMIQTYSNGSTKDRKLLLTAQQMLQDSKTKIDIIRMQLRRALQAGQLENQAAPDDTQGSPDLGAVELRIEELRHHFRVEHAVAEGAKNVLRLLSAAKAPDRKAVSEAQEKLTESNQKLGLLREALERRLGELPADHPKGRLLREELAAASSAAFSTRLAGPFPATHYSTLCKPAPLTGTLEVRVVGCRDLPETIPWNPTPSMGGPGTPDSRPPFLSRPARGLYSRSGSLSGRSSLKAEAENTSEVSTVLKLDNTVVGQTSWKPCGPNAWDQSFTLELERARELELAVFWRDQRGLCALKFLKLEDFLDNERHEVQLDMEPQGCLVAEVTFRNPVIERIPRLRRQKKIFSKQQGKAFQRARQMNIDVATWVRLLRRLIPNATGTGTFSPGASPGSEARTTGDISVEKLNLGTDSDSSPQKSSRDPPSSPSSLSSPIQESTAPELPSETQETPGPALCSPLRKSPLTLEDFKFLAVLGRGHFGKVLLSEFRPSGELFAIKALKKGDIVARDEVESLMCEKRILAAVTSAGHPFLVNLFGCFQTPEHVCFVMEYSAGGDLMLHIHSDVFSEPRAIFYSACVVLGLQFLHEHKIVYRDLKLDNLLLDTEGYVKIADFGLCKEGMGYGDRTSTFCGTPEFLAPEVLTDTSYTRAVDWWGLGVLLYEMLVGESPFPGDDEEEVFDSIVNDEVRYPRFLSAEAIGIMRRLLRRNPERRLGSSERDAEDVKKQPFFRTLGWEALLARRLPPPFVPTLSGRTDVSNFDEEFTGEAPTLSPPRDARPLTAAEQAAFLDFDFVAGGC

CSK (human) = CSK (human) (UniProt P41240)
STK17A (human) = STK17A (human) (UniProt Q9UEE5)
[3] = system: EGFR (human), P00533 [G719S]
CDC42BPA (human) = CDC42BPA (human) (UniProt Q5VT25)
DCLK2 (human) = DCLK2 (human) (UniProt Q8N568)
PDGFRB (human) = PDGFRB (human) (UniProt P09619)
Chain of PDGFRB (human) (P09619 whole entry, looked up): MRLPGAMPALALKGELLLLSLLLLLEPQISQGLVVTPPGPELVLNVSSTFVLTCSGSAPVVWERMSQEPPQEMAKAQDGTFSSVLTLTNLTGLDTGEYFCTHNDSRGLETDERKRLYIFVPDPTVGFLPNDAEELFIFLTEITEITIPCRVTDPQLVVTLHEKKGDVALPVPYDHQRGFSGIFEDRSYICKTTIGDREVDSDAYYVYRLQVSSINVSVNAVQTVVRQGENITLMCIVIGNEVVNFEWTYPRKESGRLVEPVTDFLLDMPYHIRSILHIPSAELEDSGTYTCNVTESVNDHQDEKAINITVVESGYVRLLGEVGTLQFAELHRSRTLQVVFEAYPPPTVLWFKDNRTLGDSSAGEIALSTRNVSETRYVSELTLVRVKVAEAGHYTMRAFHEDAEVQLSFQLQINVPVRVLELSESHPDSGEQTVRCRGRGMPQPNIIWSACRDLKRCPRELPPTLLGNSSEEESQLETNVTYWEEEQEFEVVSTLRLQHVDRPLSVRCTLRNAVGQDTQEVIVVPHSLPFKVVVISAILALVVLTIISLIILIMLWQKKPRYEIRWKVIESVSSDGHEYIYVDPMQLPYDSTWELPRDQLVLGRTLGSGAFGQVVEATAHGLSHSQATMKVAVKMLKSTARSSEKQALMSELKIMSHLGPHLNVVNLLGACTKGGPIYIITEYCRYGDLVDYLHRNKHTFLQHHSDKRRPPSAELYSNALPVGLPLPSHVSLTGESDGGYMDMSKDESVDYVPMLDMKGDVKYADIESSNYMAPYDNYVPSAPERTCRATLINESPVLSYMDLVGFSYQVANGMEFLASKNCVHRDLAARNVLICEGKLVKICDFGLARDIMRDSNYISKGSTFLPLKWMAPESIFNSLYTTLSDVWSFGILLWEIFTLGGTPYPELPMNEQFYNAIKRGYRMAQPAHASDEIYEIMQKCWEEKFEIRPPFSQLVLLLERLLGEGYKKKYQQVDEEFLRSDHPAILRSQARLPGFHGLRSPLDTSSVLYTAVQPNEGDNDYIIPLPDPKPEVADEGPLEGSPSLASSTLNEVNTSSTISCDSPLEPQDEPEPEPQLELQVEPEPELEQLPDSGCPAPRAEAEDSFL

MYO3B (human) = MYO3B (human) (UniProt Q8WXR4)
PKN2 (human) = PKN2 (human) (UniProt Q16513)
Chain of PKN2 (human) (Q16513 whole entry, looked up): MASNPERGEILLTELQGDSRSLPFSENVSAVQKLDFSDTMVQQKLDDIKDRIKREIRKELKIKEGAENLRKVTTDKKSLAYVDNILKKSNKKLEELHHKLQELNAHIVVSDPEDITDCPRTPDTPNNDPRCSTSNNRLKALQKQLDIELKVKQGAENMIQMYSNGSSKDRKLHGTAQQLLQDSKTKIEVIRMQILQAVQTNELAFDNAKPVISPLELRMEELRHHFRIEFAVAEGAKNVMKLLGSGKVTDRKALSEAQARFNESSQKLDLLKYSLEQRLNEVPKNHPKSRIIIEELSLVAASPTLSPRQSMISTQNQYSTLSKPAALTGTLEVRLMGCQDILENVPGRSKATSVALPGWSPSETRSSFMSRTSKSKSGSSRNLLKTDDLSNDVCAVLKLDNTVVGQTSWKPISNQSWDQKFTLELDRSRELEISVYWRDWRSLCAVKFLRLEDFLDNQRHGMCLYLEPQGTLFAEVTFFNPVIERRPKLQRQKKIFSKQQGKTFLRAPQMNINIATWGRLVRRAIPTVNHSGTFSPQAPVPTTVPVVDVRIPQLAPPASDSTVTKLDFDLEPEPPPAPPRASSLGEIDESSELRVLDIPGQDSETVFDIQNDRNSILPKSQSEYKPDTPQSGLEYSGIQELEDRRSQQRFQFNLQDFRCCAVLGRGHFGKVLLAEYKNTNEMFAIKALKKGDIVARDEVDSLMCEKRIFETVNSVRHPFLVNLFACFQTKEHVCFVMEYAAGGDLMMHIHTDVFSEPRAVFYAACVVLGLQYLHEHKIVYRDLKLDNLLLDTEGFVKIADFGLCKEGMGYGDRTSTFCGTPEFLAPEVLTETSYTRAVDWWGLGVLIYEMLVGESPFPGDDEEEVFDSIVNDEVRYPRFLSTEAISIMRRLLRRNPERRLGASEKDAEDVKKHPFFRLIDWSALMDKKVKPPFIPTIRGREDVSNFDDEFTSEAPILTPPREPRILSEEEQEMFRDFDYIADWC

STK25 (human) = STK25 (human) (UniProt O00506)
[4] = system: FLT3 (human), P36888 [D835Y]
FYN (human) = FYN (human) (UniProt P06241)
HIPK4 (human) = HIPK4 (human) (UniProt Q8NE63)
RIPK1 (human) = RIPK1 (human) (UniProt Q13546)
LIMK1 (human) = LIMK1 (human) (UniProt P53667)
EPHA3 (human) = EPHA3 (human) (UniProt P29320)
Chain of EPHA3 (human) (P29320 whole entry, looked up): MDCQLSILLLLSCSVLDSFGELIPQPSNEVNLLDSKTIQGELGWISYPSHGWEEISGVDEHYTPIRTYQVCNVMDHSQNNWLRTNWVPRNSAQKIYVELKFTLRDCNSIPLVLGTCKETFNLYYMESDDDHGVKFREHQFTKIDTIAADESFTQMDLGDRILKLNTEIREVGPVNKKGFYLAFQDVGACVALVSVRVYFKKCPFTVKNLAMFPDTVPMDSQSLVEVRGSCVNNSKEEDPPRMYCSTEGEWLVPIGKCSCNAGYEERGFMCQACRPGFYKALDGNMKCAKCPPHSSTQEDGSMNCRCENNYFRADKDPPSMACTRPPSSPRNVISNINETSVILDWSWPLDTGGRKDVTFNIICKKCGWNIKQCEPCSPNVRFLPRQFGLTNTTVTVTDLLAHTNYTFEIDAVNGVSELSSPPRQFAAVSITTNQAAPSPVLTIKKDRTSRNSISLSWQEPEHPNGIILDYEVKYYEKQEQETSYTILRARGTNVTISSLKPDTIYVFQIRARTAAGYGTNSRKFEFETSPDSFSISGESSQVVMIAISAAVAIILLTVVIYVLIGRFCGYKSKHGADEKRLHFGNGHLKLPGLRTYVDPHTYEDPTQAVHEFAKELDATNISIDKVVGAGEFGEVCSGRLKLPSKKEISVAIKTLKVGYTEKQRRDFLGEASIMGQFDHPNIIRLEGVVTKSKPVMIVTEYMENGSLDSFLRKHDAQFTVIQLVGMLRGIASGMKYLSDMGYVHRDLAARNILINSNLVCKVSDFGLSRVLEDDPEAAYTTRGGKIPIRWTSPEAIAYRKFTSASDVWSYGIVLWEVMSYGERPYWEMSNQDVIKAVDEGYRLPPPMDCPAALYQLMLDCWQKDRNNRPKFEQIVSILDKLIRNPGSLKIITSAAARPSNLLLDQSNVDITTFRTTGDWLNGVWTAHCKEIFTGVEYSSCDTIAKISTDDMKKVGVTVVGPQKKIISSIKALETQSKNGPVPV

CSNK1E (human) = CSNK1E (human) (UniProt P49674)
MARK4 (human) = MARK4 (human) (UniProt Q96L34)
STK39 (human) = STK39 (human) (UniProt Q9UEW8)
MAP2K6 (human) = MAP2K6 (human) (UniProt P52564)
ABL1 (human) = ABL1 (human) (UniProt P00519)
MKNK2 (human) = MKNK2 (human) (UniProt Q9HBH9)
MKNK1 (human) = MKNK1 (human) (UniProt Q9BUB5)
TLK2 (human) = TLK2 (human) (UniProt Q86UE8)
EPHB1 (human) = EPHB1 (human) (UniProt P54762)
CDC42BPB (human) = CDC42BPB (human) (UniProt Q9Y5S2)
PRKX (human) = PRKX (human) (UniProt P51817)
TNK2 (human) = TNK2 (human) (UniProt Q07912)
NEK7 (human) = NEK7 (human) (UniProt Q8TDX7)
Chain of NEK7 (human) (Q8TDX7 whole entry, looked up): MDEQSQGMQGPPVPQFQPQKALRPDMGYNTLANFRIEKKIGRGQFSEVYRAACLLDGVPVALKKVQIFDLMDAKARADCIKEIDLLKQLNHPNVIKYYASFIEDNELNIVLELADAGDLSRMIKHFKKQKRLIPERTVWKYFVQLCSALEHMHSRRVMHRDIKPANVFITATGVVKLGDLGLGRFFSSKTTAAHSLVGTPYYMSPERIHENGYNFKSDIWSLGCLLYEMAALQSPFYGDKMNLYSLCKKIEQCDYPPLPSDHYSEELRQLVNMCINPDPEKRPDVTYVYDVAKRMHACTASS

Chain of PAK2 (human) (Q13177 whole entry, looked up): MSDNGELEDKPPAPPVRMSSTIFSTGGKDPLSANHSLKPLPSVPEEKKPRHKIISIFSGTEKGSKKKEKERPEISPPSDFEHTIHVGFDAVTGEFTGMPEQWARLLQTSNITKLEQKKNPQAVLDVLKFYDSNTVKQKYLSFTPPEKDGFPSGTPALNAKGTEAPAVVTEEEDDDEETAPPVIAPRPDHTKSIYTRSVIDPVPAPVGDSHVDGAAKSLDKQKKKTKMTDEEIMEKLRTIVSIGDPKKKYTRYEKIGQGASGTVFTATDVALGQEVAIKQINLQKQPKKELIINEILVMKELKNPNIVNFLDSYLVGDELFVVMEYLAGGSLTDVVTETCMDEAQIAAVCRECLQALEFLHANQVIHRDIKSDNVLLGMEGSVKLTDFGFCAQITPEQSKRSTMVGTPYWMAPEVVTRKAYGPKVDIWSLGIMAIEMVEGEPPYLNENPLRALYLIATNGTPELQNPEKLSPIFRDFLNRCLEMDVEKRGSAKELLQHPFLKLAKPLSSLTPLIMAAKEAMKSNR

inhibition of binding [1]: 41% | inhibition of binding (STK4 (human)): 0% | inhibition of binding (NTRK3 (human)): 0% | inhibition of binding (PAK2 (human)): 17% | inhibition of binding (SRPK2 (human)): 27% | inhibition of binding [2]: 0% | inhibition of binding (TNNI3K (human)): 0% | inhibition of binding (DYRK1B (human)): 0% | inhibition of binding (MARK3 (human)): 0% | inhibition of binding (MLTK (human)): 0% | inhibition of binding (CAMK2D (human)): 0% | inhibition of binding (PKN1 (human)): 0% | inhibition of binding (CSK (human)): 8% | inhibition of binding (STK17A (human)): 0% | inhibition of binding [3]: 10% | inhibition of binding (CDC42BPA (human)): 0% | inhibition of binding (DCLK2 (human)): 30% | inhibition of binding (PDGFRB (human)): 0% | inhibition of binding (MYO3B (human)): 1% | inhibition of binding (PKN2 (human)): 0% | inhibition of binding (STK25 (human)): 0% | inhibition of binding [4]: 12% | inhibition of binding (FYN (human)): 0% | inhibition of binding (HIPK4 (human)): 21% | inhibition of binding (RIPK1 (human)): 0% | inhibition of binding (LIMK1 (human)): 0% | inhibition of binding (EPHA3 (human)): 0% | inhibition of binding (CSNK1E (human)): 7% | inhibition of binding (MARK4 (human)): 0% | inhibition of binding (STK39 (human)): 2% | inhibition of binding (MAP2K6 (human)): 0% | inhibition of binding (ABL1 (human)): 0% | inhibition of binding (MKNK2 (human)): 5% | inhibition of binding (MKNK1 (human)): 0% | inhibition of binding (TLK2 (human)): 13% | inhibition of binding (EPHB1 (human)): 0% | inhibition of binding (CDC42BPB (human)): 0% | inhibition of binding (PRKX (human)): 0% | inhibition of binding (TNK2 (human)): 0% | inhibition of binding (NEK7 (human)): 0%
Compound: Nc1cc(C(F)(F)F)c(-c2cc(N3CCOCC3)nc(N3CCOCC3)n2)cn1
